# According to patent publication US20240390371A1, “HETEROARYL AND HETEROCYCLIC COMPOUNDS FOR TREATING ACUTE INFLAMMATION” (TES Pharma S.r.l., priority 2023, published 2024):
# Assays:
# Kupffer cells [1] = assay: Gene expression in Kupffer cells after LPS-induced inflammation; type: cell-based, mouse; conditions: compound 10 μM
# Method: […] stimulated with LPS overnight […] (1 mg/mL stock solution in H2O, dispensed at 50 ng/mL in the well) final concentration. Cells treated with DMSO were used as control at the final concentration of 0.5% in medium. All the wells were normalized with DMSO at 0.5% final concentration. The supernatant was collected to measure cytokine secretion using a Bio-Plex Pro mouse cytokine 23-plex assay system (cat #M60009RDPD) using a Bio-Plex Instrument. The cells were washed once with PBS, and then lysed to extract total RNA for performing RT-PCR to evaluate ACMSD modulation of IL-10, SIRT1, and STAT3 gene expression.
# Briefly, total RNA was extracted from the cells using the manufacturer's protocol for Qiagen RNeasy Plus Mini Kit (cat. 74134). The total RNA concentration was quantified using an Implen Instrument, and the purity was evaluated by measuring the ratio of A260/A280.
# Total RNA (1 μg) was reverse transcribed using the manufacturer's protocol for SuperScript IV VILO Master Mix (ThermoFisher cat. #. 11756500). Real-time PCR was then performed in CFX 96 Real Time System (Bio-Rad) as follows: denaturation at 95° C. for 2 minutes, followed by 40 cycles at 95° C. for 10 s, and hybridization at 60° C. for 20 s. QPCR was performed using the 2× QuantiNova SYBR Green PCR Master Mix (Qiagen). Mouse β2 microglobulin (m β2M) was used as a reference gene.
# Following inflammation induced by LPS (Kupffer cells treated with LPS 50 ng/mL […] incubation time) ACMSD inhibition, with compound I-34, reverses the changes in the expression of inflammatory modulators. Expression of pro-inflammatory genes is reduced (TNF-α, IL-6, and iNOS) and that of anti-inflammatory genes is increased (Arg-1, IL-10, and MRC2) by ACMSD inhibition.
# HK-2 cells [2] = assay: Gene expression in HK-2 cells after LPS stimulus; type: cell-based
# Method: ((N=3) One way Anova: Dunnett's test: **p<0.01 vs pathological control.)
# ACMSD inhibition, with compound I-34, decreased inflammatory gene expression (IL-6 and TNF-α) in HK-2 cells following an 18 h stimulus with 30 μg/ml of LPS.
# Kupffer cells [3] = assay: Cytokine secretion in Kupffer cells exposed to LPS; type: cell-based, mouse; conditions: LPS 24 h, compound 1 μM
# From the text: […] Cells treated with DMSO were used as control at the final concentration of 0.5% in medium. All the wells were normalized with DMSO at 0.5% final concentration. The supernatant was collected to measure cytokine secretion using a Bio-Plex Pro mouse cytokine 23-plex assay system (cat #M60009RDPD) using a Bio-Plex Instrument. The cells were washed once with PBS, and then lysed to extract total RNA for performing RT-PCR to evaluate ACMSD modulation of IL-10, SIRT1, and STAT3 gene expression.
# All cytokine secretion values were normalized to the luminescent signal relative to the measuring of the cellular ATP (CellTiter-Glo cat #G7571)).
# (§1) (One way Anova: Dunnett's test: **p<0.01, ***p<0.001; vs pathological control.)
# HK-2 cells [4] = assay: Fibrotic gene expression in HK-2 cells after TGFβ insult; type: cell-based; conditions: pre-treatment, TGFβ insult at 10 ng/mL
# From the text: (§2) ((N=3) One way Anova: Dunnett's test: **p<0.01, ***p<0.001; vs pathological control.)
# [5] = tested on: mouse primary hepatocytes and murine stellate cells; assay: Gene expression in co-cultured mouse primary hepatocytes and murine stellate cells exposed to free fatty acids; type: cell-based; conditions: co-culture exposed to free fatty acids (MIX)
# From the text: Mouse primary hepatocytes and murine stellate cells were co-cultured with FFA to induce fibrosis as observed in NASH patients.
# as §1
# [6] = tested on: 3D human liver microtissues; assay: Cytokine expression and secretion in 3D human liver microtissues (organoids); type: cell-based; conditions: free fatty acids mix and LPS 10 μg/mL, compound 10 and 50 μM, dose-response manner
# Method: 3D InSight™ Human Liver Microtissues (organoids) composed of multi-donor primary human hepatocytes in co-culture with Non-Parenchymal Cells (NPC), containing primary human Kupffer cells and primary Liver Endothelial Cells (LEC) were provided by Insphero, Switzerland. These human liver organoids to evaluate the anti-inflammatory effect of ACMSD inhibition.
# The organoids were treated with free fatty acids (palmitic acid and oleic acid according to manufacturer's instructions) and lipopolisaccaride (LPS) in a diabetic medium (Insphero) at the concentration of 10 μg/mL to induce lipid accumulation in hepatocytes and pro-inflammatory cytokine secretion including; TNF-α, IL-6, IL-8, MCP-1, and MIP1α. Vehicle control solution was prepared as negative control. DMSO was maintained constant concentration of 0.1% total solution.
# Two concentrations of compound I-34 (10 μM and 50 μM) were used and added together with the NASH stimuli mix. Cytokine secretion was measured in cell medium at day 4 following treatment using the Bio-Plex Pro Human Cytokine Screening Panel (Bio-Rad) according to manufacturer's instructions.
# 3D human liver microtissues were treated with vehicle (DMSO), a mix of free fatty acids and LPS (10 μg/mL) and mix together with two concentrations of compound I-34 (10 and 50 μM). […]
# [7] = tested on: HK-2 proximal tubule cells; assay: Cisplatin-induced apoptosis (Caspases 3/7 activity) in HK-2 cells; type: cell-based; conditions: Cisplatin 50 μM; compound 10, 50 and 100 μM added 1 hr before Cisplatin injury
# From the text: as §2
# [8] = 18 h stimulus with 30 μg/ml LPS, compound 100 μM
smiles,measurement,setting,value
"N#Cc1c(Cc2ccccc2)nc(SCc2cccc(-c3nnn[nH]3)c2)[nH]c1=O [Compound I-34, 4-Benzyl-6-oxo-2-[3-(1H-tetrazol-5-yl)-benzylsulfanyl]-1,6-dihydro-pyrimidine-5 carbonitrile]","Expression of anti-inflammatory genes (Arg-1, IL-10, and MRC2)",Kupffer cells [1]; LPS 50 ng/mL,increased
same,"Expression of pro-inflammatory genes (TNF-α, IL-6, and iNOS)",Kupffer cells [1]; LPS 50 ng/mL,reduced
same,QPRT expression,Kupffer cells [1]; LPS,reversed LPS-induced reduction of QPRT expression
same,ACMSD expression,HK-2 cells [2]; [8],does not significantly affect
same,Inflammatory gene expression (IL-6 and TNF-α),HK-2 cells [2]; [8],decreased
same,"Inflammatory gene expression (IL-6 and TNF-α), dose response","HK-2 cells [2]; 18 h stimulus with 30 μg/ml LPS, several concentrations",decreased inflammatory gene expression (IL-6 and TNF-α) in a dose response manner
same,QPRT expression,"HK-2 cells [2]; LPS 18 h, compound 100 μM",reversed LPS-induced reduction of QPRT expression
same,"Secretion of pro inflammatory cytokines (IL-1β, IL-6, TNF-α)",Kupffer cells [3],decreased
same,Fibrotic gene expression (Fibronectin and TIMP2),HK-2 cells [4],decreased fibrotic gene expression (Fibronectin and TIMP2) in a dose response manner
same,Expression of pro-fibrotic and pro-inflammatory genes,[5],decreased
same,Cytokine secretion (hepatic inflammation),[6]; day 4,reducing
same,Cytokine expression (hepatic inflammation),[6],reducing
same,Cisplatin-induced apoptosis (Caspases 3/7 activity),[7],provides protection
